Some results are limits rather than exact numbers.

Our source for the IC50 values is patent US20120214840A1, “INDOLIZINE INHIBITORS OF 5-LIPOXYGENASE” (PANMIRA PHARMACEUTICALS, LLC, priority 2009, published 2012).

The test system of the first assay is LTB4 in human leukocytes. Put plainly: Human Leukocyte LTB4 Inhibition Assay. The settings on record: Leukocyte, 0.5 h; human leukocytes stimulated with calcium ionophore, 30 minutes at 37° C., LTB4 by ELISA; read-out: LTB4 HLA IC50. Format: cell-based. As for the experimental part:
A non-limiting example of a human leukocyte inhibition assay is as follows: Blood was drawn from consenting human volunteers into heparanized tubes and 3% dextran 0.9% saline ⅓ rd volume added. After sedimentation of red blood cells a hypotonic lysis of remaining red blood cells was performed and leukocytes sedimented at 1200 rpm. The pellet was resuspended at 1.25×10^5 cells/ml and aliquoted into wells containing 1 μL 100% DMSO (vehicle) or 2.5 μL drug in 100% DMSO. Samples were incubated for 5 minutes at 37° C. and 2 μL calcium ionophore […] (from a 50 mM DMSO stock diluted just prior to the assay in Hanks balanced salt solution (Invitrogen)) to 1.25 mM) was added, solutions mixed and incubated for 30 minutes at 37° C. Samples were centrifuged at 1,200 rpm (˜200×g) for 10 minutes at 4° C., plasma removed and a 1:4 dilution assayed for LTB4 concentration using ELISA (Assay Designs). Drug concentrations to achieve 50% inhibition (IC50's) of vehicle LTB4 were determined by nonlinear regression (Graphpad Prism) of % inhibition versus log drug concentration.
For orientation: An ELISA detects its analyte on a solid surface through an enzyme-linked reagent.
`CCOC(=O)c1cn2cc(Cn3cc(C(O)(CC)C(F)(F)F)nn3)ccc2c1-c1ccc(F)cc1` (centres unmarked) [Compound 1-1, 1-(4-Fluoro-phenyl)-6-[4-(1-hydroxy-1-trifluoromethyl-propyl)-[1,2,3]-triazol-1-ylmethyl]-indolizine-2-carboxylic acid ethyl ester]: the 50% inhibitory concentration (IC50) (usually the concentration that inhibits the measured activity by half) was < 300 nM. For `CCC(O)(c1cn(Cc2ccc3c(C(C)C)c(C#N)cn3c2)nn1)C(F)(F)F` (centres unmarked) [Compound 1-10, 6-[4-(1-Hydroxy-1-trifluoromethyl-propyl)-[1,2,3]triazol-1-ylmethyl]-1-isopropyl-indolizine-2-carbonitrile], the IC50 is < 300 nM. For the compound `CCC(O)(c1cn(Cc2ccc3c(-c4ccc(OC)nc4)c(C(N)=O)cn3c2)nn1)C(F)(F)F` (centres unmarked) [Compound 1-14, 6-[4-(1-Hydroxy-1-trifluoromethyl-propyl)-[1,2,3]triazol-1-ylmethyl]-1-(6-methoxy-pyridin-3-yl)-indolizine-2-carboxylic acid amide], the half-maximal inhibitory concentration (IC50) is < 300 nM. In the case of `C=C(C)c1c(C(=O)OCC)cn2cc(Cn3cc(C(O)(CC)C(F)(F)F)nn3)ccc12` (centres unmarked) [Compound 1-7, 6-[4-(1-Hydroxy-1-trifluoromethyl-propyl)-[1,2,3]triazol-1-ylmethyl]-1-isopropenyl-indolizine-2-carboxylic acid ethyl ester], the IC50 was < 300 nM.

Regarding `CCC(O)(c1cn(Cc2ccc3c(-c4ccc(F)cc4)c(C(N)=O)cn3c2)nn1)C(F)(F)F` (single isomer, unassigned; enantiomer a) [Compound 1-5, 1-(4-Fluoro-phenyl)-6-[4-(1-hydroxy-1-trifluoromethyl-propyl)-[1,2,3]triazol-1-ylmethyl]-indolizine-2-carboxylic acid amide (Enantiomer A)], the IC50 was < 300 nM. For `CCC(O)(c1cn(Cc2ccc3c(C(C)C)c(C(N)=O)cn3c2)nn1)C(F)(F)F` (centres unmarked) [Compound 1-9, 6-[4-(1-Hydroxy-1-trifluoromethyl-propyl)-[1,2,3]triazol-1-ylmethyl]-1-isopropyl-indolizine-2-carboxylic acid amide], the IC50 is > 1000 nM. On the same count and under the same terms, for `CCC(O)(c1cn(Cc2ccc3c(-c4ccc(F)cc4)c(C(N)=O)nn3c2)nn1)C(F)(F)F` (centres unmarked) [Compound 1-12, 3-(4-Fluoro-phenyl)-6-[4-(1-hydroxy-1-trifluoromethyl-propyl)-[1,2,3]-triazol-1-ylmethyl]-pyrazolo[1,5-a]pyridine-2-carboxylic acid amide] the value was < 300 nM; for `CCOC(=O)c1cn2cc(Cn3cc(C(O)(CC)C(F)(F)F)nn3)ccc2c1-c1ccc(OC)nc1` (centres unmarked) [Compound 1-13, 6-[4-(1-Hydroxy-1-trifluoromethyl-propyl)-[1,2,3]triazol-1-ylmethyl]-1-(6-methoxy-pyridin-3-yl)-indolizine-2-carboxylic acid ethyl ester], < 300 nM. Same read-out and setting: for `CCC(O)(c1cn(Cc2ccc3c(-c4ccc(F)cc4)c(C#N)nn3c2)nn1)C(F)(F)F` (centres unmarked) [Compound 1-11, 3-(4-Fluoro-phenyl)-6-[4-(1-hydroxy-1-trifluoromethyl-propyl)-[1,2,3]triazol-1-ylmethyl]-pyrazolo[1,5-a]pyridine-2-carbonitrile] the value was < 300 nM. Same read-out and setting: as for `CCC(O)(c1cn(Cc2ccc3c(-c4ccc(F)cc4)c(C#N)cn3c2)nn1)C(F)(F)F` (centres unmarked) [Compound 1-3, 1-(4-Fluoro-phenyl)-6-[4-(1-hydroxy-1-trifluoromethyl-propyl)-[1,2,3]triazol-1-ylmethyl]-indolizine-2-carbonitrile], the figure is < 300 nM; as for `CCOC(=O)c1cn2cc(Cn3cc(C(O)(CC)C(F)(F)F)nn3)ccc2c1C(C)C` (centres unmarked) [Compound 1-8, 6-[4-(1-Hydroxy-1-trifluoromethyl-propyl)-[1,2,3]triazol-1-ylmethyl]-1-isopropyl-indolizine-2-carboxylic acid ethyl ester], < 300 nM; as for `CCOC(=O)c1cn2cc(CNc3nnc(C(O)(CC)C(F)(F)F)o3)ccc2c1-c1ccc(F)cc1` (centres unmarked) [Compound 1-4, 1-(4-Fluoro-phenyl)-6-{[5-(1-hydroxy-1-trifluoromethyl-propyl)-[1,3,4]oxadiazol-2-ylamino]-methyl}-indolizine-2-carboxylic acid ethyl ester], < 300 nM. On to `CCC(O)(c1cn(Cc2ccc3c(-c4ccc(F)cc4)c(C(N)=O)cn3c2)nn1)C(F)(F)F` (centres unmarked) [Compound 1-2, 1-(4-Fluoro-phenyl)-6-[4-(1-hydroxy-1-trifluoromethyl-propyl)-[1,2,3]triazol-1-ylmethyl]-indolizine-2-carboxylic acid amide], for which the half-maximal inhibitory concentration (IC50) was < 300 nM.

The same assay, now with this note: human leukocytes stimulated with calcium ionophore, 30 minutes at 37° C., LTB4 by ELISA; read-out: LTB4 HLA IC50.
In the case of `CCC(O)(c1cn(Cc2ccc3c(-c4ccc(F)cc4)c(C(N)=O)cn3c2)nn1)C(F)(F)F` (single isomer, unassigned; enantiomer b) [Compound 1-6, 1-(4-Fluoro-phenyl)-6-[4-(1-hydroxy-1-trifluoromethyl-propyl)-[1,2,3]triazol-1-ylmethyl]-indolizine-2-carboxylic acid amide (Enantiomer B)], the 50% inhibitory concentration (IC50) was < 300 nM.
